Source: paper PMC9944867, “Mechanistic in vitro studies indicate that the clinical drug–drug interactions between protease inhibitors and rosuvastatin are driven by inhibition of intestinal BCRP and hepatic OATP1B1 with minimal contribution from OATP1B3, NTCP and OAT3” (Pharmacology Research & Perspectives, 2023)
“And” between values parts separate entries of the source, which are not always exact repeats. Equal values may be shown once. “Also recorded” adds a separate entry of the source. Where a name gives a salt, the structure may show the parent alone. Read-outs that look alike come from different tables or passages of the source. Marks after values point to notes of the source that are not given here.

Assays:
[1] = target: T1, BCRP (Homo sapiens, UniProt Q9UNQ0); assay: Caco-2 unidirectional (B-A) BCRP inhibition assay, [3H]-estrone 3-sulfate transport (IC50 determination)
T1 sequence (Q9UNQ0 1-655): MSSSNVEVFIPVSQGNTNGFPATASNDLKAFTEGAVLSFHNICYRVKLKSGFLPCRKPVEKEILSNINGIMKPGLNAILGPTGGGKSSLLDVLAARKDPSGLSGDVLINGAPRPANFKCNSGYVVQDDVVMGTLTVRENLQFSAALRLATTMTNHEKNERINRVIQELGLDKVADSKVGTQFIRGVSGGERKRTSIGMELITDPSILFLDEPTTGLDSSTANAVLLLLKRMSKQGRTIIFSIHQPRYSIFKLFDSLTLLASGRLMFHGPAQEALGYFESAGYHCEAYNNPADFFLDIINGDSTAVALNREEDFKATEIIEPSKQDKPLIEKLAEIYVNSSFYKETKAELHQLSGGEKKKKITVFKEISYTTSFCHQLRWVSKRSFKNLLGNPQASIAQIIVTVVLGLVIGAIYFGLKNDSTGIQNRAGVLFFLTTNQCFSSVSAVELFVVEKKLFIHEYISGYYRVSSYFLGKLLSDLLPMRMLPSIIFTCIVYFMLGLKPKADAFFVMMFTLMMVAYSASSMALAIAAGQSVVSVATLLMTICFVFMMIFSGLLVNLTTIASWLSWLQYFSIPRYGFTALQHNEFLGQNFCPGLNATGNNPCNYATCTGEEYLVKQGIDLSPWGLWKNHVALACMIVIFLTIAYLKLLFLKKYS
Procedure: The methodology used was adapted from the previously validated Caco‐2 unidirectional (basolateral to apical; B‐A) BCRP inhibition assay.[13]
The BCRP inhibition experiments were performed between day 18 to 22 post‐seeding. […] After pre‐incubation, transport buffer was removed and the appropriate donor solutions were added to the basolateral donor compartment. […] Receiver solutions (final DMSO concentration of ≤1 % v/v) in transport buffer containing either the corresponding concentration of test inhibitor or DMSO (vehicle control), and the fluorescent cell monolayer integrity marker lucifer yellow (100 μM), were added to the apical compartments (total volume = 90 μL). Incubations were conducted in triplicate wells per assay condition in a heated incubator at 37°C for 90 min. Following the incubation, the amount (pmol) of [^3H]‐estrone 3‐sulfate appearing in the receiver compartment was determined by sampling (50 μL) into a white walled clear bottomed multiwell plate, to which scintillation fluid (200 μL) was added, and then samples counted on a Microbeta2 liquid scintillation counter (PerkinElmer). The quantified amount (derived from disintegrations per minute; DPM) of [^3H]‐estrone 3‐sulfate was subsequently converted to concentration (pmol/mL) and used to calculate apparent permeability (Papp), as described previously.[18]

[2] = target: T2, human OATP1B1 (SLCO1B1) (Homo sapiens, UniProt Q9Y6L6); assay: OATP1B1 inhibition in transporter-expressing HEK293 cells, [3H]-estradiol 17β-D-glucuronide uptake (IC50 determination); conditions: OATP1B1-mediated transport of [3H]-estradiol 17β-D-glucuronide (0.02 μM), HEK293
T2 sequence (Q9Y6L6 1-691): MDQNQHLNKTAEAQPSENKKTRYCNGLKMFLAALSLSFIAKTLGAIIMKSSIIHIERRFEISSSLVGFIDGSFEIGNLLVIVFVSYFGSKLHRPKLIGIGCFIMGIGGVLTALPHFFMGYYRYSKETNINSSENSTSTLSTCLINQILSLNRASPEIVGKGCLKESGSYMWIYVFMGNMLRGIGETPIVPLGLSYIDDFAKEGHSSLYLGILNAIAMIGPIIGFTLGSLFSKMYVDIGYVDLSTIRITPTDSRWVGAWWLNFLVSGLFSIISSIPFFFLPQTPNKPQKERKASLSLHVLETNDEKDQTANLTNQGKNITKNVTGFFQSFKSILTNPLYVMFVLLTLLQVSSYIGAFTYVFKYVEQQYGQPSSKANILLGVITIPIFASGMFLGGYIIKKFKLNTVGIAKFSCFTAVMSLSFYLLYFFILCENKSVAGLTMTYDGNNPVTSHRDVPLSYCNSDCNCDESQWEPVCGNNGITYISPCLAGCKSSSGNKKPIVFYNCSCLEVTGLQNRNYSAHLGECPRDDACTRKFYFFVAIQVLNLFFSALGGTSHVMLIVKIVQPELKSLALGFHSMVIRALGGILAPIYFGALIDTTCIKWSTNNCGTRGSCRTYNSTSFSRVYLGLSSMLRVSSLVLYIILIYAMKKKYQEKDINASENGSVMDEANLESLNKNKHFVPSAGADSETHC
Procedure: (§1) OATP1B1, OATP1B3, NTCP and vector control cell lines were cultured and subsequent transporter assays conducted as described above using the same transporter‐specific probe substrates and incubation times. For OATP1B1, the probe substrate was [^3H]‐estradiol 17β‐D‐glucuronide (0.02 μM) incubated for 2 min, with rifamycin SV (100 μM) as positive control inhibitor. For IC50 determinations, the only difference to the method performed above was that the 15‐min pre‐incubation step contained a range of six concentrations of protease inhibitor drug, and subsequent incubations were conducted with the same six concentration levels of drug rather than with a single concentration.

[3] = target: T3, human NTCP (SLC10A1) (Homo sapiens, UniProt Q14973); assay: NTCP single concentration inhibition screen in HEK293 cells; type: cell-based; conditions: ≥10x [Iin max u]: atazanavir 50 μM, darunavir 15 μM, lopinavir 5 μM, ritonavir 0.3 μM; [3H]-taurocholic acid 1 μM
T3 construct: host or cells: HEK293 TransportoCells
T3 sequence (Q14973 1-349): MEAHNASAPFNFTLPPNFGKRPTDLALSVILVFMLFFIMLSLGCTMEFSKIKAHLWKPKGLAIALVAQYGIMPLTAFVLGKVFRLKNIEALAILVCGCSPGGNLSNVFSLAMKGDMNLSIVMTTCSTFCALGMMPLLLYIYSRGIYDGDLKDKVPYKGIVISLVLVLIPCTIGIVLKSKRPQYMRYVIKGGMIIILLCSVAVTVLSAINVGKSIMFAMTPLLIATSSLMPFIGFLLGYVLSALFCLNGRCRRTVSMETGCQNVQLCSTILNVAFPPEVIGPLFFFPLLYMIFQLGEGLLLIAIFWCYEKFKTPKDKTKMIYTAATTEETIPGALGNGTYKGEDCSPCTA

[4] = human, in vivo
[5] = read-out: [Cmax] mean steady-state maximum plasma concentration, total drug, cited from earlier work
[6] = tested on: OAT3; parameters: method as in Yoshida et al.[32]; conditions: up to 10 μM; ref Yoshida et al.[32]; cited from earlier work
[7] = Pharmacokinetic parameters of protease inhibitors in clinical interaction studies with rosuvastatin; conditions: calculated, clinical dose of Table 5
[8] = tested on: BCRP; parameters: method as in PMID 21612343; conditions: ref [17]; cited from earlier work
[9] = target: T4, OAT3 (Homo sapiens, UniProt Q8TCC7); assay: OAT3 single concentration inhibition screen in HEK293 cells; type: cell-based; conditions: human, HEK293 cells expressing OAT3 (with vector control cells), pH 7.4, probe [3H]-estrone 3-sulfate (1 μM); probenecid 300 μM; single concentration screens; read-out: Inhibition of OAT3 by positive control (mean), screen
T4 construct: host or cells: HEK293 TransportoCells
T4 sequence (Q8TCC7 1-542): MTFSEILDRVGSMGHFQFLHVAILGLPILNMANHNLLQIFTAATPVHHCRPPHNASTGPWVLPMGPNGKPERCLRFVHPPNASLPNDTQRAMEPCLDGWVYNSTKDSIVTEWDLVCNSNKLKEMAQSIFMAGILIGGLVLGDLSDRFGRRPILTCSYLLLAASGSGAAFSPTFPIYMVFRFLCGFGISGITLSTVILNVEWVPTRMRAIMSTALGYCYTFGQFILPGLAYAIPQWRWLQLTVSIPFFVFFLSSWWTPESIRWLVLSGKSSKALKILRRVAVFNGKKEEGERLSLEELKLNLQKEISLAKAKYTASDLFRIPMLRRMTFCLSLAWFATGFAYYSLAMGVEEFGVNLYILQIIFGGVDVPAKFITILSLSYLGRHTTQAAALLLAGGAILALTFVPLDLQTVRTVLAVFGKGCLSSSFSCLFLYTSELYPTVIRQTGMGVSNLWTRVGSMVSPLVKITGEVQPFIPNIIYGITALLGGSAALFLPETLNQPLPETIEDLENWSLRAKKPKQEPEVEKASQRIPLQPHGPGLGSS

[10] = target: T5, OATP1B1 (Homo sapiens, UniProt Q9Y6L6); assay: OATP1B1 inhibition in transporter-expressing HEK293 cells, [3H]-estradiol 17β-D-glucuronide uptake (IC50 determination); conditions: human, HEK293 cells expressing OATP1B1 (with vector control cells), pH 7.4, probe [3H]-estradiol 17β-D-glucuronide (0.02 μM)
T5 sequence (Q9Y6L6 1-691): T2 sequence (Q9Y6L6 1-691)
Procedure: as §1

[11] = target: T6, human OAT3 (SLC22A8) (Homo sapiens, UniProt Q8TCC7); assay: OAT3 single concentration inhibition screen in HEK293 cells; type: cell-based; conditions: ≥10x unbound [Cmax]: atazanavir 15 μM, darunavir 10 μM, lopinavir 3 μM, ritonavir 0.1 μM; probe 1 μM
T6 construct: host or cells: HEK293 TransportoCells
T6 sequence (Q8TCC7 1-542): T4 sequence (Q8TCC7 1-542)

[12] = cited from earlier work

## CC(C)CN(C[C@@H](O)[C@H](Cc1ccccc1)NC(=O)O[C@H]1CO[C@H]2OCC[C@H]21)S(=O)(=O)c1ccc(N)cc1 [darunavir]
[1]
  IC50: 126 µM and 154 µM and 148 µM
[1]; IC50 mean (BCRP), BCRP-mediated B-A transport of [3H]-estrone 3-sulfate (1 μM), Caco-2, mean (±SD) of occasions, IC50 equates to Ki
  IC50: 143 µM
[2]; IC50, determined values from different occasions (OATP1B1), single occasion
  IC50: 12.4 µM and 7.89 µM and 8.29 µM
[2]; IC50 mean (OATP1B1), mean (±SD) of three occasions
  IC50: 9.53 µM
[3]
  Inhibition of NTCP-mediated probe substrate transport, single concentration screen: neither darunavir nor ritonavir when tested at a single concentration greater than or equal to ten times their [Iin max u] produced inhibition; also recorded: not an inhibitor
[4]
  [Ig] maximal enterocyte concentration: 73.0 ^b μM
  [Iin max] maximum hepatic inlet concentration: 24.2 ^b μM
[5]; 600 mg, ref Kakuda et al.[36]
  Cmax: 10.6 µM
[6]
  Inhibition of OAT3, published: no inhibition
[7]
  [Iin max u] unbound maximum hepatic inlet concentration: 1.21 µM

## C[C@]12CC[C@@H]3c4ccc(OS(=O)(=O)O)cc4CC[C@H]3[C@@H]1CCC2=O [estrone 3‐sulfate, Estrone 3‐sulfate sodium salt]
[8]
  Km: 7.4 µM

## CCCN(CCC)S(=O)(=O)c1ccc(C(=O)O)cc1 [probenecid]
[9]
  inhibition at 3 min, 300 μM: 90.6%

## CO[C@H]1/C=C/O[C@@]2(C)Oc3c(C)c(O)c4c(O)c(cc(O)c4c3C2=O)NC(=O)/C(C)=C\C=C\[C@H](C)[C@H](O)[C@@H](C)[C@@H](O)[C@@H](C)[C@H](OC(C)=O)[C@@H]1C [rifamycin SV, rifamycin SV sodium salt]
[10]
  inhibition at 2 min, 100 μM: 96.5 ± 3.2%

## CC(C)c1nc(CN(C)C(=O)N[C@H](C(=O)N[C@@H](Cc2ccccc2)C[C@H](O)[C@H](Cc2ccccc2)NC(=O)OCc2cncs2)C(C)C)cs1 [ritonavir]
[11]
  Inhibition of OAT3-mediated [3H]-estrone 3-sulfate transport, single concentration screen: neither atazanavir, darunavir, lopinavir nor ritonavir inhibited OAT3 transport
[5]; clinical dose of Table 5, ref Elsby et al.[1]
  Cmax: 0.93 µM
[7]; (FaFg × ka × dose)/Qent
  [Ig] maximal enterocyte concentration: 1.39 ^f μM
[7]
  [Iin max u] unbound maximum hepatic inlet concentration: 0.0131 µM
  [Iin max] maximum hepatic inlet concentration: 1.19 ^f μM

## CC(C)c1nc(N(C)S(C)(=O)=O)nc(-c2ccc(F)cc2)c1/C=C/[C@@H](O)C[C@@H](O)CC(=O)O [rosuvastatin]
[12]; active renal secretion, ref [1]
  OAT3 ƒe: 0.25
[12]; hepatic uptake, ref [1]
  OATP1B1 ƒe: 0.38
[12]; intestinal BCRP efflux as barrier to absorption, ref [1]
  fraction absorbed: 0.5
[12]; intestinal BCRP efflux, ref [1]
  BCRP ƒe: 0.5
[12]; ref [13]
  NTCP ƒe: 0.21
  OATP1B3 ƒe: 0.11
  overall hepatic elimination ƒe: 0.7
